Results on three compounds are retold here after patent US9403800B2, “Compounds for inhibition of cancer cell proliferation” (ChemRegen, Inc., priority 2012, dated 2016).

One data set has as its system NF-B signaling pathway. Put plainly: NF-B signaling pathway transcriptional activity (selectivity). Format: cell-based.
The test system of the next data set is TGF-signaling pathway. Put plainly: TGF-signaling pathway transcriptional activity (selectivity). Format: cell-based.
The test system of data set [1] is canonical Wnt target genes, Cyclin D1 (CCND1), Axin2 (AXIN2), and c-Myc (c-MYC). Put plainly: mRNA levels of canonical Wnt target genes in HEK293T and SW480 cells. Format: cell-based. Particulars: HEK293T and SW480 colorectal cells.
The next data set has as its system xenopus embryos. The experiment in a line: xenopus embryo development and marker gene expression. Format: in vivo. An excerpt:
Previous studies highlighted the importance of Wnt pathway signaling in promoting cellular differentiation. Accordingly, the physiological relevance of the Wnt inhibitory functions of 1 was shown by the effect of this compound on the morphology of xenopus embryos during embryonic development. […] Vent2 and Otx2 are regulated by TCF3 during anteroposterior axis specification in xenopus embryos and HIPK2 antagonizes them through phosphorylation of TCF3. These phenotypes are very similar to embryos with TCF3-knockout and contrast to those of HIPK2-knockout. Together, the observations indicate that compound 1 activates HIPK2 to remove TCF proteins from their target DNA via phosphorylation.

Data set [2] has as its system normal human fibroblast cells. The experiment in a line: effect on normal human fibroblast cells. Format: cell-based.
A short description of data set [3]: chemical stability by HPLC. Format: physicochemical. To be noted: determined by HPLC. The text has this: As observed from the data presented in Table 1, both free bases and salts gave significant Wnt inhibition potency. On the basis of the lipophilic character of many of the analogs, it is likely interaction site on the molecular target has a lipophilic character although polar interactions are apparent. To increase solubility, were possible, hydrochloride salts of the sulfonamides were synthesized. To afford appropriate bioavailability, sulfonamides were synthesized with chemical and metabolic stability in mind.

Another data set has as its system MDA-MB-231. The experiment in a line: viability (Alamar Blue), MDA-MB-231. Format: cell-based. Particulars: Homo sapiens; MDA-MB-231, 24 hrs. On the procedure:
Given Compounds 1, 4, and 15 inhibited cancer cell proliferation and stimulated apoptosis, we tested the effects compounds 1, 4, and 15 on cancer cell viability and cytotoxicity. The MDA-MB-231, MCF-7, PC-3, and HCT-116 cells were treated with the indicated compounds for 24 hrs. over a dose range from 1.6 to 5000 nM. Viability and cytotoxicity were then measured by the Alamar Blue and Vibrant Cytotox assays respectively.
Background: Resazurin is reduced to fluorescent resorufin, in cell work by metabolically active cells.

A further data set deals with HEK-293T cells. Put plainly: Alamar Blue resazurin-based cell viability assay, HEK-293T. Particulars: Homo sapiens, read-out: decrease of cell viability, EC50.
In data set [4] the test system is Endogenous Target Genes for Wnt & Apoptotic Pathways in MDA-MB 231. The experiment in a line: qPCR of Wnt and pro-apoptotic target genes, MDA-MB 231. Format: cell-based. On the set-up: concentration or dose not given beside the values. To be noted: MDA-MB 231, 24 hrs, qPCR normalized to 36B4. As to the method: (§1) Given the effects of Compounds 1, 4, and 15 on biological functions (e.g., proliferation, viability, and apoptosis) in several cancer cell lines, we tested the effects of compounds 1, 4, and 15 on regulation of endogenous Wnt and pro-apoptotic gene expression. MDA-MB-231, MCF-7, PC-3, and HCT-116 cancerncells were treated with the indicated compounds for 24 hrs. over a dose range from 1.6 to 5000 nM. Gene expression was measured using qPCR, normalized to the housekeeping gene, 36B4, and calculated % change relative to DMSO control. NC, no change.
In general terms: In qPCR the cycle at which signal appears reflects the starting amount.

The subject of data set [5] is Endogenous Target Genes for Wnt & Apoptotic Pathways in HCT-116. The experiment in a line: qPCR of Wnt and pro-apoptotic target genes, HCT-116. Format: cell-based. On the set-up: MYC expression, % change relative to DMSO control / CCDN1 expression, % change relative to DMSO control / BAX expression, % change relative to DMSO control / BBC3 expression, % change relative to DMSO control / FOS expression, % change relative to DMSO control: concentration or dose not given beside the values. Particulars: HCT-116, 24 hrs, qPCR normalized to 36B4. As to the method: as §1

Another data set concerns PC-3 prostate tumors. Put plainly: PC-3 prostate tumor xenograft. To be noted: for growth of PC-3 prostate tumors: i.p. 30 mg/kg daily for 19 days. Format: in vivo, mice. On the procedure: (§2) Based on the inhibition of cancer cell proliferation by the disclosed compounds the disclosed compounds likely will inhibit cancer cell migration. […] Following establishment of HCT-116 tumors, daily doses of either Compound 15 or vehicle were administered by i.p. injection at 20 mg/kg for 28 days. […] The weight of the excised HCT-116 tumors was 77% lower for the Compound 15-treated mice relative to the vehicle control on Day 28 of the experiment. […] Following establishment of PC-3 tumors, daily doses of either Compounds 1, 15 or vehicle were administered by i.p. injection at 30 mg/kg for 19 days. […] The weight of the excised PC-3 tumors was 66% for compound 15-treated mice compared to vehicle-treated controls on Day 19 of the experiment.

Data set [6] has as its system HCT-116 and MCF-7 cancer cells; p53 −/− isogenic HCT-116 cells. Put plainly: morphology change of cancer cells with and without p53. To be noted: for morphology change in cancer cells with wild-type and mutant p53: HCT-116 and MCF-7, 500 nM for 24 hours; for morphology change in cells lacking p53: −/− p53 isogenic HCT-116 cells, 500 nM for 24 hours. Format: cell-based. The text has this:
Using the same treatment conditions, this morphology change was not observed in […] cells lacking p53 (i.e., −/− p53, isogenic HCT-116 cells) highlighting the integral importance of p53 protein in the mechanism of action of the disclosed compounds.

For another data set, the system named is HEK293 cells. Put plainly: apoptosis in HEK293 cells. To be noted: upon treatment. Format: cell-based.
Data set [7] can be described thus: in vivo toxicity assessment in rats. Particulars: 30 mg/kg p.o. daily for one week. On the procedure: Compounds of structure I were designed to be chemically and metabolically stable and non-toxic. For example, the alpha methyl group of the quinoxalin ring system protects the sulfonamide from rapid metabolism or hydrolysis. […] We tested Compounds 4 and 15 for toxicity in rats. In one study, we dosed rats with Compound 4 (p.o) daily for one week with 30 mg/kg. In another study, we dosed rats daily for one week with 30 mg/kg Compound 15 by p.o. administration. We monitored the weights of the rats daily over the course of both studies. […] Blood was also obtained from the animals at termination of the experiment.

Data set [8] has as its system HCT-116 xenograft colon tumors. The experiment in a line: HCT-116 xenograft colon tumors in nu/nu mice. Format: in vivo. On the procedure: as §2
The mark [9] stands for this setting: xenopus embryos incubated with compound.

Consider `O=C1CCCN1c1ccc(S(=O)(=O)N2CCCc3ccccc32)cc1` [Compound 1, 1-(4-(3,4-dihydroquinolin-1(2H)-ylsulfonyl)phenyl)pyrrolidin-2-one], for which, in the data set with NF-B signaling pathway, the “transcriptional activity of the NF-B signaling pathway” value is “did not alter the transcriptional activity”. For the same compound, the “transcriptional activity of the TGF-signaling pathway” value with TGF-signaling pathway is “did not alter the transcriptional activity”. The “mRNA levels of canonical Wnt target genes CCND1, AXIN2, c-MYC” value in data set [1] is “decrease in mRNA levels”. Further, in the data set with xenopus embryos (treatment during the mid-blastula transition), the “posterior development of xenopus embryos” value is “inhibited posterior development”. In addition, in the data set on xenopus embryos (setting [9]), the “anterior and ventral expression domain of Vent2” value is recorded as “expanded”; the “anterior marker gene Otx2 expression” value is on record as “decreased anterior marker gene Otx2”. In addition, in data set [2], the “effect on normal human fibroblast cells” value was “did not have any affect on normal human fibroblast cells”. In addition, the half-life (in general, the time in which the quantity being followed falls by half) in data set [3] was 120 h. Also, half-maximal inhibition in the data set with MDA-MB-231 (IC50) required 35 nM. In addition, the EC50 (in general, the concentration needed to bring the measured effect to its halfway point) in the data set with HEK-293T cells is about 25 nM. In data set [4], the “BAK expression, % change relative to DMSO control” value is listed as −42%; the “BAX expression, % change relative to DMSO control” value was −70%; the “BBC3 expression, % change relative to DMSO control” value is on record as −78%; the “CCDN1 expression, % change relative to DMSO control” value is reported as −72%. In addition, in data set [4], the “JUN expression, % change relative to DMSO control” value is given as −50% and the “MYC expression, % change relative to DMSO control” value is recorded as −70%. In addition, in data set [5], the “BAK expression, % change relative to DMSO control” value is recorded as “+75%”; the “BAX expression, % change relative to DMSO control” value is given as “+5%”; the “BBC3 expression, % change relative to DMSO control” value is on record as −80%; the “CCDN1 expression, % change relative to DMSO control” value is given as “+40%”. Also, in data set [5], the “FOS expression, % change relative to DMSO control” value was −70%; the “JUN expression, % change relative to DMSO control” value was “+525%”; the “MYC expression, % change relative to DMSO control” value is given as −45%. Besides, the “growth of PC-3 prostate tumors” value in the data set on PC-3 prostate tumors is given as “inhibited the growth of PC-3 prostate tumors”. In [6], the “morphology change in cancer cells with wild-type and mutant p53” value (“morphology change in cancer cells” for short) was “morphology change from a flat adherent cell to a rounded non-adherent one”; the “morphology change in cells lacking p53” value is given as “not observed”. For the same compound, the “apoptotic HEK293 cells” value in the data set on HEK293 cells is given as “increase in apoptotic HEK293 cells”.

Take `CC1CCc2ccccc2N1S(=O)(=O)c1ccc(N2CCCC2=O)cc1` (stereo not drawn) [Compound 4, 1-(4-(2-methyl-3,4-dihydroquinolin-1(2H)-ylsulfonyl)phenyl)pyrrolidin-2-one]: the IC50 (usually the concentration at which inhibition is half-maximal) with MDA-MB-231 is 45 nM. Moreover, in data set [4], the “BAK expression, % change relative to DMSO control” value is −50%; the “BAX expression, % change relative to DMSO control” value was −65%; the “BBC3 expression, % change relative to DMSO control” value is listed as −80%; the “CCDN1 expression, % change relative to DMSO control” value was −25%. In [4], the “FOS expression, % change relative to DMSO control” value is recorded as “+100%”; the “JUN expression, % change relative to DMSO control” value is −45%; the “MYC expression, % change relative to DMSO control” value is listed as −55%. In addition, in [5], the “BAK expression, % change relative to DMSO control” value is “+110%”; the “BBC3 expression, % change relative to DMSO control” value was −90%; the “CCDN1 expression, % change relative to DMSO control” value was −5%; the “FOS expression, % change relative to DMSO control” value is listed as −85%. In data set [5], the “JUN expression, % change relative to DMSO control” value was “+725%” and the “MYC expression, % change relative to DMSO control” value was −75%. Moreover, in [7], the “food or water intake or behavior” value is “no differences in food or water intake or behavior”, the “overall toxicity in healthy rats” value is given as “nontoxic” and the “weights of the rats compared to controls” value is “no differences in the weights of the rats were observed”. Also, in [6], the “morphology change in cancer cells” value is on record as “morphology change from a flat adherent cell to a rounded non-adherent one”; the “morphology change in cells lacking p53” value is reported as “not observed”.

Compound `CN1CCN(S(=O)(=O)c2ccc(N3CCCC3=O)cc2)c2ccccc21` [Compound 15, 1-(4-(4-methyl-3,4-dihydroquinoxalin-1(2H)-ylsulfonyl)phenyl)pyrrolidin-2-one] came in with a 50% inhibitory concentration (IC50) with MDA-MB-231 of 93 nM. In addition, in [4], the “BAK expression, % change relative to DMSO control” value is −20%; the “BAX expression, % change relative to DMSO control” value was −62%; the “BBC3 expression, % change relative to DMSO control” value is recorded as −65%; the “CCDN1 expression, % change relative to DMSO control” value is listed as −22%. Besides, in data set [4], the “FOS expression, % change relative to DMSO control” value is listed as −10%; the “JUN expression, % change relative to DMSO control” value is −38%; the “MYC expression, % change relative to DMSO control” value was −50%. Moreover, in [5], the “BAK expression, % change relative to DMSO control” value is on record as “+98%”; the “BAX expression, % change relative to DMSO control” value was −5%; the “BBC3 expression, % change relative to DMSO control” value is reported as −95%; the “CCDN1 expression, % change relative to DMSO control” value was “+25%”. For the same compound, in data set [5], the “FOS expression, % change relative to DMSO control” value is given as −84%; the “JUN expression, % change relative to DMSO control” value is “+775%”; the “MYC expression, % change relative to DMSO control” value is given as −70%. The “weight of the excised HCT-116 tumors, lower relative to the vehicle control” value in [8] (i.p. 20 mg/kg daily, Day 28) was 77%. Moreover, in data set [8] (nu/nu mice, i.p. 20 mg/kg daily for 28 days), the “growth of HCT-116 colon tumors” value is recorded as “decreased the growth of HCT-116 colon tumors”. In addition, in the data set with PC-3 prostate tumors, the “growth of PC-3 prostate tumors” value was “inhibited the growth of PC-3 prostate tumors”. The “weight of the excised PC-3 tumors compared to vehicle-treated controls” value in the data set with PC-3 prostate tumors (i.p. 30 mg/kg daily, Day 19) is reported as 66%. In [7], the “food or water intake or behavior” value was “no differences in food or water intake or behavior”; the “overall toxicity in healthy rats” value is “nontoxic”; the “toxicity in tissue (liver, heart, kidney, lung and intestine)” value is “did not show any indication of toxicity”; the “weights of the rats compared to controls” value is on record as “no differences in the weights of the rats were observed”. The “serum clinical chemistry values compared with vehicle-treated animals” value in data set [7] (at termination) is on record as “did not alter the clinical chemistry values”. In addition, in [6], the “morphology change in cancer cells” value is on record as “morphology change from a flat adherent cell to a rounded non-adherent one”; the “morphology change in cells lacking p53” value is “not observed”.
